Bounds are passed on as bounds.

This assay concerns the target T1, LXR beta (Homo sapiens, UniProt P55055).
T1 construct: 5 μL of 4×LXR beta-LBD was added to each well (final concentration 5 nM); purchased Thermofisher PV4658
T1 sequence (P55055 222-460 limits assumed): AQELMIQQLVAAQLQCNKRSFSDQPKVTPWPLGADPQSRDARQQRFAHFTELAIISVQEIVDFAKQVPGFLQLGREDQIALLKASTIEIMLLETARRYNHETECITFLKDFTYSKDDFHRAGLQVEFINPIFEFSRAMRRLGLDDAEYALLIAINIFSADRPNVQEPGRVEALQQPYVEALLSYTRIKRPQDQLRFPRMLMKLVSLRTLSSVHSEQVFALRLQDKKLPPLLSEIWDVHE
The assay is described as follows: LXR beta agonist assay (Lanthascreen TR-FRET). Format: biochemical. To be noted: LXR beta-LBD 5 nM, read-out: LXR-β EC50. The procedure:
EC50 values of compounds against LXR beta were determined at Integral BioSciences (India) using Lanthascreen TR-FRET (Thermofisher, Cat #PV4658). Assay was performed in a 20 μL final volume in a Black 384-well plate (Corning, Cat #4511). Dose response curve for the compounds were prepared in duplicates with starting concentration at 30 μM and a three-fold titration was performed. The reaction buffer consisted of TR-FRET Coregulator Buffer G. To the compound dilution, 5 μL of 4×LXR beta-LBD was added to each well (final concentration 5 nM). An equal volume (5 μL) containing 4×Fl-D22/Tb-anti GST antibody (final concentration 100 nM/10 nM) was added to initiate the enzyme reaction and the reaction was incubated for 60 min at 22° C. after which the plates were read using BioTek Plate reader for TR-FRET every hour up to 4 hours.
Analysis was done using the standard curve by non-linear regression, variable slope inhibitor curve fits (Graph-Pad Prism) and EC50's of compounds were determined wherever possible.
Background: In TR-FRET formats the signal depends on donor and acceptor labels being close together.
What is called EC50 is the midpoint of the concentration-response curve. `CN(C)C(=O)c1ccc(N(C)C2CN(C3CCN(C(=O)C4(c5ccccc5)CCC4)CC3)C2)cc1Cl` [Compound 1.31, 2-chloro-N,N-dimethyl-4-(methyl(1-(1-(1-phenylcyclobutanecarbonyl)piperidin-4-yl)azetidin-3-yl)amino)benzamide]: the 50% effective concentration (EC50) is 3.23 µM.
The same measure for `CN(C)C(=O)c1cc([N+](=O)[O-])c(NC2CN(C3CCN(C(=O)[C@](O)(c4ccccc4)C(F)(F)F)CC3)C2)cc1Cl` [Compound 1.129, (R)-2-chloro-N,N-dimethyl-5-nitro-4-(1-(1-(3,3,3-trifluoro-2-hydroxy-2-phenylpropanoyl)piperidin-4-yl)azetidin-3-ylamino)benzamide]: 3.47 µM; for `CN(C)C(=O)c1ccc(-c2nnc(C3CCN(S(=O)(=O)c4ccccc4Cl)CC3)s2)cc1Cl` [Compound 1.11, 2-chloro-4-(5-(1-(2-chlorophenylsulfonyl)piperidin-4-yl)-1,3,4-thiadiazol-2-yl)-N,N-dimethylbenzamide]: 3.09 µM; for `O=C(c1ccc(NC2CN(C3CCN(C(=O)C(O)(c4ccccc4)C(F)(F)F)CC3)C2)cc1Cl)N1CC(F)(F)C1` (stereo not drawn) [Compound 1.110, 1-(4-(3-(3-chloro-4-(3,3-difluoroazetidine-1-carbonyl)phenylamino)azetidin-1-yl)piperidin-1-yl)-3,3,3-trifluoro-2-hydroxy-2-phenylpropan-1-one]: 5.71 µM.
On to `O=C(N1CCC(C2CCN(c3cc(Cl)c4c(=O)[nH]ccc4c3)CC2)CC1)C1(c2ccccc2)CCC1` [Compound 1.22, 8-chloro-6-(1′-(1-phenylcyclobutanecarbonyl)-[4,4′-bipiperidin]-1-yl)isoquinolin-1(2H)-one], for which the EC50 came out at 2.4 µM.
Regarding `CN(C)C(=O)c1c(F)cc(N2CCN(C3CC4(C3)CN(C(=O)C(O)(c3ccccc3)C(F)(F)F)C4)CC2)cc1F` (stereo not drawn) [Compound 1.126, 2,6-difluoro-N,N-dimethyl-4-(4-(2-(3,3,3-trifluoro-2-hydroxy-2-phenylpropanoyl)-2-azaspiro[3.3]heptan-6-yl)piperazin-1-yl)benzamide], the EC50 was found to be 1.58 µM.
Take `CN(C)C(=O)c1c(Cl)cc(NC2CN(C3CCN(C(=O)[C@](O)(c4ccccc4)C(F)(F)F)CC3)C2)cc1Cl` [Compound 1.122, (R)-2,6-dichloro-N,N-dimethyl-4-(1-(1-(3,3,3-trifluoro-2-hydroxy-2-phenylpropanoyl)piperidin-4-yl)azetidin-3-ylamino)benzamide]: the concentration for a half-maximal effect (EC50) was determined as 4.26 µM.
The same measure for `O=C(NCC(F)F)c1ccc(NC2CN(C3CCN(C(=O)C(O)(c4cccc(Cl)c4)C(F)(F)F)CC3)C2)cc1Cl` (stereo not drawn) [Compound 1.130, 2-chloro-4-((1-(1-(2-(3-chlorophenyl)-3,3,3-trifluoro-2-hydroxypropanoyl)piperidin-4-yl)azetidin-3-yl)amino)-N-(2,2-difluoroethyl)benzamide]: 1.57 µM.
For `CC(=O)N1CCN(C(=O)c2ccc(NC3CN(C4CCN(C(=O)C(O)(c5cccc(Cl)c5)C(F)(F)F)CC4)C3)cc2Cl)CC1` (stereo not drawn) [Compound 1.134, 1-(4-(3-((4-(4-acetylpiperazine-1-carbonyl)-3-chlorophenyl)amino)azetidin-1-yl)piperidin-1-yl)-2-(3-chlorophenyl)-3,3,3-trifluoro-2-hydroxypropan-1-one], the EC50 turned out to be 0.86 µM.
The result for `O=C(c1ccc(NC2CN(C3CCN(C(=O)C(O)(c4cccc(Cl)c4)C(F)(F)F)CC3)C2)cc1Cl)N1CC(F)(F)C1` (stereo not drawn) [Compound 1.131, 1-(4-(3-((3-chloro-4-(3,3-difluoroazetidine-1-carbonyl)phenyl)amino)azetidin-1-yl)piperidin-1-yl)-2-(3-chlorophenyl)-3,3,3-trifluoro-2-hydroxypropan-1-one] reads 1.79 µM; that for `CN(C)C(=O)c1ccc(NC2CN(C3CCN(C(=O)C4CCC(F)(F)CC4)CC3)C2)cc1Cl` [Compound 1.63, 2-chloro-4-(1-(1-(4,4-dfluorocyclohexanecarbonyl)piperidin-4-yl)azetidin-3-ylamino)-N,N-dimethylbenzamide], greater than 30 µM; that for `CN(C)C(=O)c1ccc(C2CCN(C3CC4(C3)CN(C(=O)C(O)(c3ccccc3)C(F)(F)F)C4)CC2)cc1Cl` (stereo not drawn) [Compound 1.80, 2-chloro-N,N-dimethyl-4-(1-(2-(3,3,3-trifluoro-2-hydroxy-2-phenylpropanoyl)-2-azaspiro[3.3]heptan-6-yl)piperidin-4-yl)benzamide], 4.33 µM.
The same measure for `CN(C)C(=O)c1ccc(-c2nnc(C3=CCN(C(=O)C4CCC(F)(F)CC4)CC3)s2)cc1Cl` [Compound 1.60, 2-chloro-4-(5-(1-(4,4-difluorocyclohexanecarbonyl)-1,2,3,6-tetrahydropyridin-4-yl)-1,3,4-thiadiazol-2-yl)-N,N-dimethylbenzamide]: 1.51 µM; for `CN(C)C(=O)c1ccc(-c2ccn(C3CCN(C(=O)C(O)(c4ccccc4)C(F)(F)F)CC3)c(=O)c2)cc1Cl` (stereo not drawn) [Compound 1.27, 2-chloro-N,N-dimethyl-4-(2-oxo-1-(1-(3,3,3-trifluoro-2-hydroxy-2-phenylpropanoyl)piperidin-4-yl)-1,2-dihydropyridin-4-yl)benzamide]: greater than 30 µM; for `CN(C)C(=O)c1ccc(NC2CN(C3CCN(C(=O)C(O)(C4CCCCC4)C(F)(F)F)CC3)C2)cc1Cl` (stereo not drawn) [Compound 1.101, 2-chloro-4-((1-(1-(2-cyclohexyl-3,3,3-trifluoro-2-hydroxypropanoyl)piperidin-4-yl)azetidin-3-yl)amino)-N,N-dimethylbenzamide]: 4.85 µM.
The result for `O=C(c1ccc(NC2CN(C3CCN(C(=O)[C@](O)(c4ccccc4)C(F)(F)F)CC3)C2)cc1Cl)N1CCCCC1` (single isomer, unassigned) [Compound 1.108] reads 1.57 µM.
In the case of `O=C(c1ccc(NC2CN(C3CCN(C(=O)C(O)(c4ccccc4)C(F)(F)F)CC3)C2)cc1Cl)N1CCCC1` (stereo not drawn) [Compound 1.88, 1-(4-(3-(3-chloro-4-(pyrrolidine-1-carbonyl)phenylamino)azetidin-1-yl)piperidin-1-yl)-3,3,3-trifluoro-2-hydroxy-2-phenylpropan-1-one], the EC50 is greater than 30 µM.
Consider `CN(C)C(=O)c1ccc(NC2CN(C3CCN(C(=O)C45CC(C4)C5)CC3)C2)cc1Cl` [Compound 1.69, 4-(1-(1-(bicyclo[1.1.1]pentane-1-carbonyl)piperidin-4-yl)azetidin-3-ylamino)-2-chloro-N,N-dimethylbenzamide], for which the half-maximal effective concentration (EC50) is 3.79 µM.
The same measure for `O=C(c1ccc(NC2CN(C3CCN(C(=O)[C@@](O)(c4ccccc4)C(F)(F)F)CC3)C2)cc1Cl)N1CCCC1` (single isomer, unassigned) [Compound 1.99]: 1.82 µM; for `CCN(CC)C(=O)c1ccc(NC2CN(C3CCN(C(=O)[C@@](O)(c4ccccc4)C(F)(F)F)CC3)C2)cc1Cl` (single isomer, unassigned) [Compound 1.96]: 4.57 µM; for `CN(C)C(=O)c1ccc(NC2CN(C3CCN(C(=O)[C@](O)(c4ccccc4)C(F)(F)F)CC3)C2)cc1Cl` (single isomer, unassigned) [Compound 1.9]: greater than 30 µM.
The result for `CN(C)C(=O)c1ccc(NC2CN(C3CCN(C(=O)C(O)(c4ccccc4)C(F)(F)F)CC3)C2)cc1F` (stereo not drawn) [Compound 1.85, 2-fluoro-N,N-dimethyl-4-((1-(1-(3,3,3-trifluoro-2-hydroxy-2-phenylpropanoyl)piperidin-4-yl)azetidin-3-yl)amino)benzamide] reads greater than 30 µM; that for `CN(C)C(=O)c1ccc(NC2CN(C3CCN(S(=O)(=O)c4ccccc4C#N)CC3)C2)cc1Cl` [Compound 1.13, 2-chloro-4-(1-(1-(2-cyanophenylsulfonyl)piperidin-4-yl)azetidin-3-ylamino)-N,N-dimethylbenzamide], 4.43 µM.
The result for `COc1cccc(C2(C(=O)N3CC=C(c4nnc(-c5ccc(C(=O)N(C)C)c(Cl)c5)s4)CC3)CCCC2)c1` [Compound 1.64, 2-chloro-4-(5-(1-(1-(3-methoxyphenyl)cyclopentanecarbonyl)-1,2,3,6-tetrahydropyridin-4-yl)-1,3,4-thiadiazol-2-yl)-N,N-dimethylbenzamide] reads greater than 30 µM.
As for `CN(C)C(=O)c1ccc(-c2nnc(C3=CCN(C(=O)C(O)(c4ccccc4)C(F)(F)F)CC3)s2)cc1Cl` (stereo not drawn) [Compound 1.68, 2-chloro-N,N-dimethyl-4-(5-(1-(3,3,3-trifluoro-2-hydroxy-2-phenylpropanoyl)-1,2,3,6-tetrahydropyridin-4-yl)-1,3,4-thiadiazol-2-yl)benzamide], the concentration giving a half-maximal response (EC50) was determined as 4.58 µM.
The result for `COCCCN(C)C(=O)c1ccc(N2CCN(C3CC4(C3)CN(C(=O)C(O)(c3ccccc3)C(F)(F)F)C4)CC2)cc1Cl` (stereo not drawn) [Compound 1.119, 2-chloro-N-(3-methoxypropyl)-N-methyl-4-(4-(2-(3,3,3-trifluoro-2-hydroxy-2-phenylpropanoyl)-2-azaspiro[3.3]heptan-6-yl)piperazin-1-yl)benzamide] reads 2.85 µM; that for `O=C(NCC(F)F)c1ccc(NC2CN(C3CCN(C(=O)[C@](O)(c4ccccc4)C(F)(F)F)CC3)C2)cc1Cl` (single isomer, unassigned) [Compound 1.106], 2.71 µM.

Source of the values: patent publication US20220363662A1, “COMPOUNDS AS LXR AGONISTS” (Integral Biosciences Privated Limited, priority 2021, published 2022).
